In brackets after ≈: the same amount, converted by molar mass. Read-outs that look alike come from different tables or passages of the source.
Tests used:
L. major promastigotes = assay: Leishmania promastigote assay; details: read-out: IC50, effect on L. major
[1] = system: panel of anaerobic bacteria (Bacteroides fragilis, Clostridium perfringens, Clostridium difficele); type: cell-based; details: single concentration 100 μM
[2] = Determination of solubility; type: physicochemical; details: 0.3 M phosphate buffer
Experimental: Solubility of the compounds was determined by preparing a saturated solution of compound in 0.3 M phosphate buffer (pH 7.4±0.3) in a brown glass tube. The suspensions were rotated slowly for 24 hours. Aliquots were centrifuged for 10 minutes at 14.000 rpm and supernatants were diluted in 40% (v/v) acetonitrile in water prior to HPLC analysis. Concentrations of analytes were quantified against a standard curve and used as term of solubility.
The HPLC-UV method used for the assessment of solubility is the same as used in the in vitro metabolism assay.

[3] = system: Plasmodium falciparum 3D7; assay: Plasmodium falciparum assay; type: cell-based; details: Table 2, read-out: IC50, activity against Plasmodium falciparum 3D7
Eschericia coli ESS = assay: MIC determination in broth microdilution assay
S. aureus ATCC29213 = assay: Killing curve determination (time-kill curve); type: cell-based, Staphylococcus aureus; details: for bactericidal or bacteriostatic action (time-kill curve): CFU per ml at concentrations above the MIC; for MIC: S. aureus ATCC29213
[4] = system: panel of non-fastidious bacteria (Gram-positive pathogens and Eschericia coli); assay: Activity against non-fastidious bacteria (panel, results in words)
[5] = system: DHODH (dihydroorotate dehydrogenase); assay: DHODH assay; type: biochemical; details: test concentration not given
[6] = system: Enterococcus faecium #17501 (vancomycin-resistant clinical isolate); assay: MIC determination in broth microdilution assay
[7] = system: Enterococcus faecalis ATCC29212; assay: MIC determination in broth microdilution assay
[8] = system: Streptococcus pneumoniae #998 (clinical isolate); assay: MIC determination in broth microdilution assay
[9] = Determination of metabolic stability (liver microsomes); type: in vitro ADME, rat; details: 20 μM, 15 min, 37° C.
Experimental: Samples were incubated for 15 min at 37° C. and the reactions were terminated by addition of equal volumes of acetonitrile. Blank incubations were performed at the same concentration but without addition of microsomes. Both blank and microsome-containing samples were made in […] of three. […] The fraction of compound metabolised during the 15 min of incubation was determined by comparison of blank and microsome-containing samples using a Waters Alliance 2690 separation module and Waters 996 PDA-detector (Waters. […] This was followed by a 5 minutes linear gradient to initial conditions, which were maintained for 5 min. The flow rate was 0.20 ml/min and injection volume 10 μl.

[10] = system: Staphylococcus aureus ATCC29213; assay: MIC determination in broth microdilution assay
[11] = system: Staphylococcus intermedius #2357 (clinical isolate); assay: MIC determination in broth microdilution assay
[12] = system: Staphylococcus aureus ATCC33591 (resistant to methicillin); assay: MIC determination in broth microdilution assay
Pharmacokinetic studies = type: in vivo, mice; details: mice
Source text: Samples of serum were taken at defined timepoints.
The supernatant was used for the analysis.

CCN(CC)Cc1cccc(C(=O)/C=C/c2ccc(Cl)cc2Cl)c1 [A063, (E)-3-(2,4-Dichloro-phenyl)-1-(3-diethylaminomethyl-phenyl)-propenone]
IC50 (L. major promastigotes): 900 nM
activity against anaerobic bacteria [1]: activity against all microorganisms within the test panel

CN(C)Cc1cccc(/C=C/C(=O)c2ccccc2CN(C)C)c1 [A066, (E)-3-(3-Dimethylaminomethyl-phenyl)-1-(2-dimethylaminomethyl-phenyl)-propenone]
Solubility in aqueous buffer at pH 7.4 ([2]; 24 hours): 7.4 mg/ml
IC50 [3]: 900 nM

CCCCN(CCCC)c1ccc(/C=C/C(=O)c2ccccc2CN2CCN(C)CC2)cc1 [A031, (E)-3-(4-Dibutylamino-phenyl)-1-[2-(4-methyl-piperazin-1-ylmethyl)-phenyl]-propenone]
activity against the ESS strain of E. coli (Eschericia coli ESS): considerable activity
bactericidal or bacteriostatic action (time-kill curve) (S. aureus ATCC29213): bactericidal
MIC (S. aureus ATCC29213): 9.4 µM (≈ 4.21 µg/mL)

COc1ccc(C(=O)/C=C/c2ccccc2)cc1 [4′MC, 4′methoxy chalcone, reference compound]
solubility at 24 h ([2]; pH 7.4, aqueous buffer, thermodynamic from solid): < 50 µg/mL
IC50 ([3]; Plasmodium falciparum, 3D7): 40000 nM
IC50 (L. major promastigotes; Leishmania major): 5600 nM
antibacterial effect [4]: no antibacterial effect at all
Inhibition of DHODH [5]: 7%

C=CC(C)(C)c1ccc(OC)c(/C=C/C(=O)c2ccccc2CN(C)C)c1 [A034, (E)-3-[5-(1,1-Dimethyl-allyl)-2-methoxy-phenyl]-1-(2-dimethylaminomethyl-phenyl)-propenone]
IC50 (L. major promastigotes): 900 nM
activity against anaerobic bacteria [1]: activity against all microorganisms within the test panel

COc1ccc(-c2ccccc2)cc1/C=C/C(=O)c1cccc(CN(C)C)c1 [A100, (E)-1-(3-Dimethylaminomethyl-phenyl)-3-(4-methoxy-biphenyl-3-yl)-propenone]
IC50 (L. major promastigotes): 200 nM

CCCCN(CCCC)c1ccc(/C=C/C(=O)c2cccc(CN(C)C)c2)cc1 [A019, (E)-3-(4-Dibutylamino-phenyl)-1-(3-dimethylaminomethyl-phenyl)-propenone]
MIC, E: Enterococcus faecium #17501 [6]: 9.4 µM (≈ 3.69 µg/mL)
MIC, D: Enterococcus faecalis ATCC29212 [7]: 9.4 µM (≈ 3.69 µg/mL)
MIC, H: Eschericia coli ESS (Eschericia coli ESS): 18.8 µM (≈ 7.38 µg/mL)
activity against the ESS strain of E. coli (Eschericia coli ESS): considerable activity
MIC, F: Streptococcus pneumoniae #998 [8]: 18.8 µM (≈ 7.38 µg/mL)
Metabolic turn-over (rat) in vitro [9]: 5%
MIC, A: Staphylococcus aureus ATCC29213 [10]: 9.4 µM (≈ 3.69 µg/mL)
MIC, C: Staphylococcus intermedius #2357 [11]: 9.4 µM (≈ 3.69 µg/mL)
MIC, B: Staphylococcus aureus ATCC33591 [12]: 9.4 µM (≈ 3.69 µg/mL)
bactericidal or bacteriostatic action (time-kill curve) (S. aureus ATCC29213): bactericidal
MIC (S. aureus ATCC29213): 9.4 µM (≈ 3.69 µg/mL)
dependence of the bactericidal action (S. aureus ATCC29213; time-kill curve): primarily dependent on incubation time
potency against Gram-positive pathogens in comparison with Licochalcone A ([4]; Gram-positive pathogens): increased potency

CN(Cc1ccccc1C(=O)/C=C/c1ccc(Cl)cc1Cl)C(C)(C)C [A035, (E)-1-{2-[(tert-Butyl-methyl-amino)-methyl]-phenyl}-3-(2,4-dichloro-phenyl)-propenone]
IC50 [3]: 900 nM
Inhibition of DHODH [5]: 26%

CN(C)CCN(C)Cc1ccccc1C(=O)/C=C/c1ccc(Cl)cc1Cl [A038, (E)-3-(2,4-Dichloro-phenyl)-1-(2-{[(2-dimethylamino-ethyl)-methyl-amino]-methyl}-phenyl)-propenone]
IC50 (L. major promastigotes): 800 nM
activity against anaerobic bacteria [1]: activity against all microorganisms within the test panel
Inhibition of DHODH [5]: 22%

O=C(/C=C/c1ccc(Cl)cc1Cl)c1ccccc1CN1CCNCC1 [A048, (E)-3-(2,4-Dichloro-phenyl)-1-(2-piperazin-1-ylmethyl-phenyl)-propenone]
bioavailability (Pharmacokinetic studies): 34%
